Patent US20170088601A1, “CD133 EPITOPES” (CEDARS-SINAI MEDICAL CENTER, priority 2008, published 2017)

How the values were obtained:
[1] = molecular target: T1, HLA-A2 molecules on T2 cells (Homo sapiens, UniProt P04439, D140Y/D185E/D98H/E176V/E277Q/G131W/G231S/I119V/I121R/I166T/I218V/L300P/L318F/N151K/N90K/P208A/P217A/Q86G/Q94H/R138H/R169H/T345S); assay: Binding of mouse CD133 peptide to HLA-A2 on T2 cells (BB7.2 mAb, flow cytometry); details: 0 μM, 10 μM or 100 μM peptide overnight
T1 construct: mean fluorescence of peptide preincubated T2 cells; endogenous in cells; host or cells: T2 cells
Experimental: The mouse counterpart of SEQ ID NO:1, […] (SEQ ID NO:11) also bound to HLA-A2, despite having only two amino acid residues in common. T2 cells were incubated overnight with 0 μM, 10 μM, or 100 μM of SEQ ID NO:11. The cells were then incubated with Brefeldin A (Sigma, St. Louis, Mo.) at 10 μg/ml for 1 hour, washed, incubated at 37° C. in the presence of Brefeldin A ([…]), and then stained with BB7.2 mAb. Fluorescence intensity was measured by flow cytometry.

[2] = molecular target: T2, HLA-A2 molecules (HLA-A*0201) on T2 cells (Homo sapiens, UniProt P04439, D140Y/D185E/D98H/E176V/E277Q/G131W/G231S/I119V/I121R/I166T/I218V/L300P/L318F/N151K/N90K/P208A/P217A/Q86G/Q94H/R138H/R169H/T345S); assay: Binding of peptides to HLA-A2 and stability of HLA-A*0201/peptide complexes on T2 cells (BB7.2 mAb staining)
T2 construct: mean fluorescence of peptide preincubated T2 cells; endogenous in cells; host or cells: T2 cells
Experimental: The cells were then incubated with Brefeldin A (Sigma, St. Louis, Mo.) at 10 μg/ml for 1 hour, washed, incubated at 37° C. for 0, 3, or 6 hours in the presence of Brefeldin A (0.5 μg/ml), and then stained with BB7.2 mAb. […] DC50 was defined as the time required for the loss of 50% of the HLA-A*0201/peptide complexes stabilized at t=0.

[3] = system: CD8 (+) T cells from healthy donors; assay: HLA-A*0201/peptide tetramer staining of peptide-induced CTLs, flow cytometry; type: cell-based, human
Experimental: To generate peptide-specific CTLs, CD8 (+) T cells were isolated from healthy donors, then stimulated by autologous DC pulsed with peptide. Specific T cells were generated after PBMCs were stimulated by autologous DC pulsed with irradiated, apoptotic cancer stem cells (CSCs). Phycoerythrin-conjugated HLA-A*0201/peptide tetramers were synthesized. The cells were stained with tetramers (5 ng/ml) in PBS+0.5% human AB serum for 1 hour at room temperature, washed once in the same buffer, stained with anti-human CD8-FITC (BD Biosciences) mAbs for 30 minutes at 4° C. followed by flow cytometry analysis.

T2 cells = assay: IFN-γ ELISA of peptide-stimulated CTLs against peptide-pulsed T2 cells; type: cell-based, human; details: ELISA of supernatant
Experimental: (§1) The binding of the peptide-primed CTLs to HLA-A2 positive human cells was also tested. To generate dendritic cells, the plastic adherent cells from PBMCs were cultured in AIM-V medium supplemented with recombinant human GM-CSF and recombinant human IL-4 at 37° C. in a humidified incubator with 5% CO2. Six days later, the immature dendritic cells were stimulated with recombinant human TNF-alpha for maturation. Mature dendritic cells were then harvested on day 8, resuspended in PBS at 1×10^6/mL with the indicated peptides (2 μg/mL), and incubated for 2 hours at 37° C. Autologous PBMCs (2×10^6 per well) were cocultured with 2×10^5 per well peptide-pulsed dendritic cells in 2 mL/well of AIM-V medium supplemented with 5% human AB serum and 10 units/mL rhIL-7 (Cell Sciences) in each well of 24-well tissue culture plates.
(§2) On the next day and then every 3 days thereafter, 300 IU/ml of IL-2 was added to the medium. On day 7, lymphocytes were restimulated with autologous dendritic cells in AIM-V medium supplemented with 5% human AB serum, rhIL-2, and rhIL-7 (10 units/mL each). To generate peptide-specific CTLs, CD8 (+) T cells were isolated from healthy donors, then stimulated by autologous DC pulsed with peptide. After three cycle stimulations, these CTLs could efficiently recognize both HLA-A2 and CD133 positive cancer stem cells, as measured by amount of IFN-γ (pg/ml) in supernatant detected by ELISA (Table 2). However, they could not recognize the CD133 positive normal neural stem cells due to their absence of MHC expression.

[4] = system: HLA-A2 and CD133 positive cancer stem cells (CSC4); assay: IFN-γ ELISA of peptide-stimulated CTLs against cancer stem cells; type: cell-based, human; details: ELISA of supernatant
Experimental: as §1, §2

Cell fluorescence (binding to HLA-A2) [1]	DC50 (time required for the loss of 50% of the HLA-A*0201/peptide complexes stabilized at t=0) ([2]; 100 μM peptide)	Binding to HLA-A2 / HLA-A*0201 molecules (in words) ([2]; listed as SEQ ID NO:1)	Binding to HLA-A2 / HLA-A*0201 molecules (in words) ([2]; listed as peptide 405)	Sequence	Tetramer positive cell ([3]; CD8+ T cells stimulated by autologous DC pulsed with peptide, PE HLA-A*0201/peptide tetramer and anti-CD8-FITC)	Immunogenicity (in words) ([3]; overall conclusion of Example 1)	IFN-γ induced by PBMC stimulus for CTL generation, target T2 + 117 (T2 cells)	IFN-γ induced by PBMC stimulus for CTL generation, target T2 + 301 (T2 cells)	IFN-γ induced by PBMC stimulus for CTL generation, target T2 + 405 (T2 cells)	IFN-γ induced by PBMC stimulus for CTL generation, target T2 + 708 (T2 cells)	IFN-γ induced by PBMC stimulus for CTL generation, target T2 + 804 (T2 cells)	IFN-γ induced by PBMC stimulus for CTL generation, target T2 only (T2 cells)	IFN-γ induced by PBMC stimulus for CTL generation, target CSC4 [4]
increased in a dose-dependent manner				MLLQVSHYL (Mus Musculus) [SEQ ID NO:11]									
	>6 h	bound strongly	binds relatively strongly	ILSAFSVYV (Homo sapien) [CD133-405]	3.72%	highly immunogenic	334 pg/mL	311 pg/mL	2450 pg/mL	394 pg/mL	390 pg/mL	289 pg/mL	2311 pg/mL
				GLLERVTRI (Homo sapien) [CD133-708]			281 pg/mL	234 pg/mL	326 pg/mL	286 pg/mL	258 pg/mL	206 pg/mL	403 pg/mL
				FLLPALIFAV (Homo sapien) [CD133-804]			275 pg/mL	148 pg/mL	294 pg/mL	247 pg/mL	409 pg/mL	211 pg/mL	450 pg/mL
				LLFIILMPLV (Homo sapien) [CD133-117]			322 pg/mL	247 pg/mL	262 pg/mL	192 pg/mL	336 pg/mL	275 pg/mL	262 pg/mL
				SLNDPLCLV (Homo sapien) [CD133-301]			174 pg/mL	165 pg/mL	185 pg/mL	214 pg/mL	252 pg/mL	179 pg/mL	390 pg/mL
